Values of other authors as cited in paper PMC6954965 (Neuropharmacology, 2019).

Columns and labels:
Male Sprague-Dawley rats = conditions: administered directly into the nucleus accumbens shell; ref Schmidt et al., 2013
PICK1 PDZ domain = conditions: binds the PDZ domain of PICK1; ref Thorsen et al., 2010
PSD95 tandem PDZ domains = conditions: dimeric peptide inhibitor of PSD95 tandem PDZ domains; ref Bach et al., 2012

Molecule	reinstatement of cocaine seeking (Male Sprague-Dawley rats)	Ki (PICK1 PDZ domain) [µM]	Ki (PSD95 tandem PDZ domains) [µM]
CCOC(=O)NC(=O)/C(C#N)=C/c1ccc(Cl)c(Cl)c1 [FSC231]	sufficient to attenuate	10.1	–
Tat-NPEG4(IEDTV)(2)	–	–	0.0046
